Article PMC10532587, “An Investigation of Structure–Activity Relationships and Cell Death Mechanisms of the Marine Alkaloids Discorhabdins in Merkel Cell Carcinoma Cells” (Marine Drugs, 2023)
Where two headings read alike, the source gives them in different places.

How the values were obtained:
HaCaT = test: Cell survival by CellTiterGlo, control cells; format: cell-based, human; settings: for AUC (arbitrary units) HaCaT: area under the dose-response curve, control cells; for IC50: Homo sapiens, HaCaT, control skin cell line, CellTiterGlo, normalized to DMSO, read-out: IC50 (nM) HaCaT
MCC13 = test: Cell survival by CellTiterGlo, VN-MCC line MCC13; format: cell-based; settings: for AUC (arbitrary units) MCC13: area under the dose-response curve; for IC50: CellTiterGlo, normalized to DMSO
MCC26 = test: Cell survival by CellTiterGlo, VN-MCC line MCC26; format: cell-based; settings: for AUC (arbitrary units) MCC26: area under the dose-response curve; for IC50: CellTiterGlo, normalized to DMSO
UISO = test: Cell survival by CellTiterGlo, VN-MCC line UISO; format: cell-based; settings: for AUC (arbitrary units) UISO: area under the dose-response curve; for IC50: CellTiterGlo, normalized to DMSO
MKL-1 = test: Cell survival by CellTiterGlo, VP-MCC line MKL-1; format: cell-based; settings: for IC50: MKL-1, CellTiterGlo; for AUC (arbitrary units) MKL-1: area under the dose-response curve
Waga = test: Cell survival by CellTiterGlo, VP-MCC line Waga; format: cell-based; settings: for AUC (arbitrary units) WaGa: area under the dose-response curve; for IC50: CellTiterGlo, normalized to DMSO
[1] = system: control (HaCaT) and Merkel cell carcinoma cell lines; test: Cell survival by CellTiterGlo, all seven cell lines; format: cell-based; settings: for IC50: Homo sapiens, HaCaT
Procedure: Three methods were employed for assessment of MCC and control cell survival/viability after discorhabdin treatment, two metabolic assays and a cell permeability assay. For all three methods, cells were plated in 384-well plates at 2500 cells/well and treated with various concentrations of discorhabdins for various time periods. CellTiterGlo^TM (Promega, Madison, WI, USA) measures cellular ATP content and was used to estimate potency of discorhabdins in cell viability assays as previously described. Continuous monitoring of metabolic activity was accomplished using a cellular reducing potential luminescence assay, the RealTime-Glo^TM MT Cell Viability Assay (Promega, Madison, WI, USA) according to manufacturer’s instructions. Loss of cell plasma membrane integrity was assessed using a cell-impermeant molecule that becomes fluorescent upon binding DNA [82] in parallel with apoptosis detection per manufacturer’s instructions (RealTimeGlo^TM Annexin V Apoptosis and Necrosis Assay-Promega). Two additional assays of apoptotic cell death were also used. Caspase activation in response to treatment of MCC cells by discorhabdins or bortezomib (as a positive control) was measured using the CaspaseGlo® 3/7 Assay (Promega, Madison, WI, USA) according to the manufacturer’s instructions at multiple time points. Inhibition of apoptotic cell death was investigated using pre-treatment of cells with for 1 h with the pan-caspase inhibitor Z-VAD-FMK (Enzo Life Sciences, Farmingdale, NY, USA) followed by treatment with discorhabdins or bortezomib and estimation of cell viability as outlined above.
In order to compare responses among all of the discorhabdins and cell lines (98 combinations), dose–response curves were generated using identical discorhabdin dilution series. GraphPad Prism 8 (San Diego, CA, USA) software was utilized to graph dose–response data and to calculate IC50 values and area under the dose–response curves (AUC) along with 95% confidence interval estimates using four-parameter logistic nonlinear regression analysis. For further analysis and comparisons, AUC for each cell line/discorhabdin pair was visualized in a heatmap generated in R version 1.3.1073 (R Core Team (2013). R: A language and environment for statistical computing. R Foundation for Statistical Computing, Vienna, Austria, http://www.R-project.org/ (accessed on 12 January 2023).
Figure S39: Activity of discorhabdins against M CC cell lines.
The indicated discorh abd ins were ass essed for th eir ability to affect surviv al of control (H aCaT) and Merkel cell carcino ma cell lines (VN-MCC: MCC13, MCC26, UISO and VP -MCC: MKL-1, MKL-2, Wag a). Cells were plat ed at 2500 cells/well and compounds the next day. Cell survival was estimated by CellTiterGlo (normalized to untreated (DMSO) cells on the same plate). Structures w ere o btained from the supplier and/or the PubChem database or as described in the text. Number in bold in ( ) refers to structures in Figure 1 in the text. Curves were plotted and IC50 values and 95% confidence interval calculated by GraphPad software. […]

MKL-2 = test: Cell survival by CellTiterGlo, VP-MCC line MKL-2; format: cell-based; settings: for IC50: CellTiterGlo, normalized to DMSO; for AUC (arbitrary units) MKL-2: area under the dose-response curve
[2] = CellTiterGlo, 10 µM highest concentration tested, read-out: IC50, all cell lines
[3] = essentially inactive compounds, read-out: average IC50 against all the cell lines
[4] = VP-MCC, normalized to DMSO, read-out: IC50 (nM) MKL-1

Structure (SMILES) | AUC (arbitrary units) HaCaT (HaCaT) | AUC (arbitrary units) MCC13 (MCC13) | AUC (arbitrary units) MCC26 (MCC26) | AUC (arbitrary units) UISO (UISO) | IC50 (MKL-1; printed in brackets beside the all-cell-lines bound, read-out: IC50 MKL-1) | AUC (arbitrary units) MKL-1 (MKL-1; VP-MCC) | AUC (arbitrary units) WaGa (Waga) | IC50 [1, 2] | IC50 [1, 3] | activity on cell viability, in words ([1]; MCC and control cell lines) | IC50 (HaCaT) | IC50 (MCC13) | IC50 (MCC26) | IC50 (UISO) | IC50 (MKL-1; [4]) | IC50 (Waga) | IC50 (MKL-2) | AUC (arbitrary units) MKL-2 (MKL-2)
O=C1C=CC2(C=C1)CCNC1=C2C2=NCCc3c[nH]c(c32)C1=O [Compound 21, didebromodiscorhabdin C] | 952.2 arbitrary units | 883 arbitrary units | 866.1 arbitrary units | 851.9 arbitrary units | > 5000 nM | 682.4 arbitrary units | 973.8 arbitrary units | > 10 µM | > 5 µM | – | – | – | – | – | – | – | – | –
O=C1C=C(S(=O)(=O)O)[C@@]2(C=CNC3=C2C2=NCCc4c[nH]c(c42)C3=O)C=C1Br [Compound 9, (+)-(6S) sulphonyl-7,8-dehydrodiscorhabdin E] | 911.5 arbitrary units | 882.5 arbitrary units | 793.9 arbitrary units | 914.8 arbitrary units | – | 917.6 arbitrary units | 949.7 arbitrary units | > 10 µM | > 5 µM | practically inactive | – | – | – | – | – | – | – | –
O=C1C2=C(C3=NCCc4c[nH]c1c43)c1c(cc(Br)c(O)c1Br)CCN2 [Compound 24, discorhabdin C phenol] | 884.9 arbitrary units | 528.6 arbitrary units | 708.7 arbitrary units | 493.2 arbitrary units | – | 279.7 arbitrary units | 611.2 arbitrary units | – | – | – | > 10000 nM | 4640 nM | 6920 nM | 4210 nM | 2330 nM | 5460 nM | – | –
O=C1C(Br)=CC2(C=CNC3=C2C2=NCCc4c[nH]c(c42)C3=O)C=C1Br [Compound 20, 7,8-dehydrodiscorhabdin C] | 940.1 arbitrary units | 694.4 arbitrary units | 815.8 arbitrary units | 542.4 arbitrary units | – | 376.3 arbitrary units | 661 arbitrary units | – | > 5 µM | – | > 10000 nM | 7480 nM | ~10000 nM | 5570 nM | 3260 nM | 7430 nM | – | –
O=C(O)CNC1C2C(=O)C=C3SC4CC31C1=C(N4)C(=O)c3[nH]cc4c3C1=[N+]2CC4 (single isomer, unassigned; (-)) [Compound 13] | 909 arbitrary units | 478.7 arbitrary units | 719.3 arbitrary units | 436.7 arbitrary units | – | 83.43 arbitrary units | 200.7 arbitrary units | – | – | – | > 10000 nM | 3820 nM | > 6000 nM | 3420 nM | 682 nM | 1560 nM | 2910 nM | 391.1 arbitrary units
O=C1C2=C3C4=[N+](CCc5c[nH]c1c54)[C@H]1C[C@@]34C[C@@H](N2)SC4=CC1=O [Compound 11, (+)-(2S,6R,8S) discorhabdin D] | 715.8 arbitrary units | 540.6 arbitrary units | 653.2 arbitrary units | 423.9 arbitrary units | – | 60.49 arbitrary units | 216.6 arbitrary units | – | – | – | > 6000 nM | 5000 nM | 5850 nM | 3620 nM | 497 nM | 1810 nM | 865 nM | 143.2 arbitrary units
CSC1=CC(=O)C=C2S[C@H]3C[C@@]12C1=C(N3)C(=O)c2[nH]cc3c2C1=NCC3 [Compound 7, (+)-(6R,8S) thiomethyldiscorhabdin G*/I] | 745.5 arbitrary units | 495.1 arbitrary units | 638.2 arbitrary units | 360.8 arbitrary units | – | 144.5 arbitrary units | 321.6 arbitrary units | – | – | – | 7960 nM | 4500 nM | 7890 nM | 3270 nM | 1230 nM | 2990 nM | – | –
Cn1cc2c3c1C(=O)C1=C(C3=NCC2)[C@]2(C=CC(=O)C(Br)=C2)CCN1 [Compound 23, (+)-(6S)-N-13-methyldiscorhabdin E] | 319.6 arbitrary units | 155.7 arbitrary units | 306.3 arbitrary units | 90.78 arbitrary units | – | 23.33 arbitrary units | 65.1 arbitrary units | – | – | – | 2980 nM | 1290 nM | 2880 nM | 781 nM | 186 nM | 546 nM | – | –
O=C1C=C2S[C@H]3C[C@]2(C=C1Br)C1=C(N3)C(=O)c2[nH]cc3ccnc1c23 [Compound 3, (+)-(6S,8S) discorhabdin Q] | 604.2 arbitrary units | 419.1 arbitrary units | 432.3 arbitrary units | 447.9 arbitrary units | – | 389.4 arbitrary units | 405.1 arbitrary units | – | – | – | 5450 nM | 3500 nM | 3760 nM | 3850 nM | 3440 nM | 3290 nM | 2040 nM | 350.1 arbitrary units
O=C1C2=C(C3=NCCc4c[nH]c1c43)C1(C=C(Br)C(O)C(Br)=C1)CCN2 (stereo not shown) [Compound 16, 3-dihydrodiscorhabdin C] | 454.5 arbitrary units | 404 arbitrary units | 543.3 arbitrary units | 375.8 arbitrary units | – | 195.9 arbitrary units | 370.5 arbitrary units | – | – | – | 4130 nM | 3470 nM | 4700 nM | 3090 nM | 1630 nM | 3200 nM | 1940 nM | 277.4 arbitrary units
Cn1cnc(SC2=CC(=O)C=C3S[C@H]4C[C@@]23C2=C(N4)C(=O)c3[nH]cc4c3C2=NCC4)c1C[C@H](N)C(=O)O (relative stereo) [Compound 5, (+)-(6S,8S,7′S*) discorhabdin K] | 944.5 arbitrary units | 837.7 arbitrary units | 841.3 arbitrary units | 767.7 arbitrary units | – | 335 arbitrary units | 660.5 arbitrary units | – | > 5 µM | – | > 10000 nM | > 10000 nM | > 10000 nM | 8300 nM | 3030 nM | 6150 nM | – | –
